Values joined by “and” are separate entries in the source; they are usually repeats but may differ in a detail not shown here. Equal entries are not always repeated.
Molecular target: T1, 14-3-3β/CFTRpS753pS768 complex (Homo sapiens, UniProt P13569+P31946)
T1 construct: His6 (cleaved yes); made in house; peptide synthetic
Test: FP assay, 14-3-3β titration at constant compound concentration (apparent KD)
Assay type: binding
Settings: for FP signal / FP signal, 14-3-3β titration: compound 100 μM; for FP signal / Polarization / FP signal, 14-3-3β titration: replicates; for Polarization: FC 100 uM, peptide 100 nM; for Fluorescence polarization signal, 14-3-3β titration: FC-A (100 μM)

T1 sequence (P31946 whole entry): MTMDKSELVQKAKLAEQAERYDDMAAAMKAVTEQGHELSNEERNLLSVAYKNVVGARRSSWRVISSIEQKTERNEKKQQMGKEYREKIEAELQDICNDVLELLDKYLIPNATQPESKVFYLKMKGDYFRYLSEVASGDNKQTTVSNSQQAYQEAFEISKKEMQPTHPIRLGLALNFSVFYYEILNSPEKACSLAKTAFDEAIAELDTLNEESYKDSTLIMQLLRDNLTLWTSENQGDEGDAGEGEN
T1 sequence (P13569 747-774 limits assumed): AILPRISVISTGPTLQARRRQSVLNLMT

C=CC(C)(C)OC[C@H]1O[C@H](O[C@@H]2C3=C([C@H](C)COC(C)=O)C[C@H](O)[C@]3(C)/C=C3/[C@@H](COC)CC[C@H]3[C@@H](C)[C@H]2O)[C@H](O)[C@@H](OC(C)=O)[C@@H]1O [FC-A, fusicoccin A, reference compound]
FP signal (14-3-3β 1.11389e-9 M): 5 and 7 and 8
Polarization (14-3-3β 1.90735e-9 M, listed as FC): 18 and 20 and 19
FP signal, 14-3-3β titration (14-3-3β 1.90735e-9 M): 0.3333 and 5.333 and 3.333
FP signal (14-3-3β 2.22778e-9 M): 6 and 8 and 5
Polarization (14-3-3β 3.8147e-9 M, listed as FC): 21 and 19
FP signal, 14-3-3β titration (14-3-3β 3.8147e-9 M): 0.3333 and 3.333 and 2.333
FP signal (14-3-3β 4.45557e-9 M): 4 and 7 and 9
Polarization (14-3-3β 7.62939e-9 M, listed as FC): 20 and 22 and 19
FP signal, 14-3-3β titration (14-3-3β 7.62939e-9 M): 6.333 and 3.333 and 1.333
FP signal (14-3-3β 8.91113e-9 M): 4 and 8 and 6
Polarization (14-3-3β 1.52588e-8 M, listed as FC): 22 and 19
FP signal, 14-3-3β titration (14-3-3β 1.52588e-8 M): 1.333 and 7.333 and 4.333
FP signal (14-3-3β 1.78223e-8 M): 6 (2×) and 7
Polarization (14-3-3β 3.05176e-8 M, listed as FC): 23 and 20 and 22
FP signal, 14-3-3β titration (14-3-3β 3.05176e-8 M): 2.333 and 4.333 and 5.333
FP signal (14-3-3β 3.56445e-8 M): 9 (2×) and 7
Polarization (14-3-3β 6.10352e-8 M, listed as FC): 24 and 25
FP signal, 14-3-3β titration (14-3-3β 6.10352e-8 M): 7.333 and 6.333 (2×)
FP signal (14-3-3β 7.12891e-8 M): 10 (2×) and 11
Polarization (14-3-3β 1.2207e-7 M, listed as FC): 28 and 30
FP signal, 14-3-3β titration (14-3-3β 1.2207e-7 M): 5.333 and 9.333 and 6.333
FP signal (14-3-3β 1.42578e-7 M): 15 and 16 and 14
Polarization (14-3-3β 2.44141e-7 M): 35
FP signal, 14-3-3β titration (14-3-3β 2.44141e-7 M): 9.333 and 10.3333 and 5.333
FP signal (14-3-3β 2.85156e-7 M): 24 and 22 (2×)
Polarization (14-3-3β 4.88281e-7 M, listed as FC): 48 and 46
FP signal, 14-3-3β titration (14-3-3β 4.88281e-7 M): 9.333 (2×) and 12.3333
FP signal (14-3-3β 5.70313e-7 M): 40 (2×) and 33
Polarization (14-3-3β 9.76563e-7 M, listed as FC): 68 and 64 and 69
FP signal, 14-3-3β titration (14-3-3β 9.76563e-7 M): 18.3333 and 11.3333 and 16.3333
FP signal (14-3-3β 1.14063e-6 M): 66 and 63 and 57
Polarization (14-3-3β 1.95313e-6 M, listed as FC): 98 and 96 and 97
FP signal, 14-3-3β titration (14-3-3β 1.95313e-6 M): 32.3333 and 30.3333 and 31.3333
FP signal (14-3-3β 2.28125e-6 M): 97 and 94 and 86
Polarization (14-3-3β 3.90625e-6 M, listed as FC): 135 and 137
FP signal, 14-3-3β titration (14-3-3β 3.90625e-6 M): 47.3333 (2×) and 44.3333
FP signal (14-3-3β 4.5625e-6 M): 137 and 131 and 124
Polarization (14-3-3β 7.8125e-6 M, listed as FC): 175 and 176
FP signal, 14-3-3β titration (14-3-3β 7.8125e-6 M): 71.3333 and 69.3333 and 64.3333
FP signal (14-3-3β 9.125e-6 M): 171 and 164 and 159
Polarization (14-3-3β 1.5625e-5 M, listed as FC): 212 and 209
FP signal, 14-3-3β titration (14-3-3β 1.5625e-5 M): 98.3333 and 94.3333 (2×)
FP signal (14-3-3β 1.825e-5 M): 202 and 191 and 192
Polarization (14-3-3β 3.125e-5 M, listed as FC): 234 and 235 and 231
FP signal, 14-3-3β titration (14-3-3β 3.125e-5 M): 123.333 and 117.333 and 124.333
FP signal (14-3-3β 3.65e-5 M): 216 and 213 and 212
Polarization (14-3-3β 6.25e-5 M, listed as FC): 246 and 249 and 248
FP signal, 14-3-3β titration (14-3-3β 6.25e-5 M): 146.333 and 138.333 and 142.333
FP signal (14-3-3β 7.3e-5 M): 227 and 226 and 224
Polarization (14-3-3β 0.000125 M, listed as FC): 256 and 254
FP signal, 14-3-3β titration (14-3-3β 0.000125 M): 152.333 and 153.333 and 150.333
FP signal (14-3-3β 0.000146 M): 232 and 230 and 229
Polarization (14-3-3β 0.00025 M, listed as FC): 260 and 261 and 258
FP signal, 14-3-3β titration (14-3-3β 0.00025 M): 165.333 and 161.333 and 167.333
FP signal, 14-3-3β titration (14-3-3β 0.0005 M): 177.333 and 174.333 and 175.333
Fluorescence polarization signal, 14-3-3β titration (14-3-3β concentration 119.2 pM): 3.333 and 5.333
Fluorescence polarization signal, 14-3-3β titration (14-3-3β concentration 238.4 pM): 3.333 and 4.333 and 2.333
Fluorescence polarization signal, 14-3-3β titration (14-3-3β concentration 476.8 pM): 4.333 and 2.333
Fluorescence polarization signal, 14-3-3β titration (14-3-3β concentration 953.7 pM): 4.333 and 6.333
Fluorescence polarization signal, 14-3-3β titration (14-3-3β concentration 6.10352e-8 M): 7.333 and 6.333
Fluorescence polarization signal, 14-3-3β titration (14-3-3β concentration 1.2207e-7 M): 5.333 and 9.333 and 6.333
Fluorescence polarization signal, 14-3-3β titration (14-3-3β concentration 2.44141e-7 M): 9.333 and 10.3333 and 5.333
Fluorescence polarization signal, 14-3-3β titration (14-3-3β concentration 4.88281e-7 M): 9.333 and 12.3333
Fluorescence polarization signal, 14-3-3β titration (14-3-3β concentration 9.76563e-7 M): 18.3333 and 11.3333 and 16.3333
Fluorescence polarization signal, 14-3-3β titration (14-3-3β concentration 1.95313e-6 M): 32.3333 and 30.3333 and 31.3333
Fluorescence polarization signal, 14-3-3β titration (14-3-3β concentration 3.90625e-6 M): 47.3333 and 44.3333
Fluorescence polarization signal, 14-3-3β titration (14-3-3β concentration 7.8125e-6 M): 71.3333 and 69.3333 and 64.3333
Fluorescence polarization signal, 14-3-3β titration (14-3-3β concentration 1.5625e-5 M): 98.3333 and 94.3333
Fluorescence polarization signal, 14-3-3β titration (14-3-3β concentration 3.125e-5 M): 123.333 and 117.333 and 124.333
Fluorescence polarization signal, 14-3-3β titration (14-3-3β concentration 6.25e-5 M): 146.333 and 138.333 and 142.333
Fluorescence polarization signal, 14-3-3β titration (14-3-3β concentration 0.000125 M): 152.333 and 153.333 and 150.333
Fluorescence polarization signal, 14-3-3β titration (14-3-3β concentration 0.00025 M): 165.333 and 161.333 and 167.333
Fluorescence polarization signal, 14-3-3β titration (14-3-3β concentration 0.0005 M): 177.333 and 174.333 and 175.333

— publication PMC9226124, “Macrocycle-stabilization of its interaction with 14-3-3 increases plasma membrane localization and activity of CFTR” (Nature Communications, 2022)
